target: Urease (Canavalia ensiformis, UniProt P07374); experiment: Urease Inhibition Assay; settings: pH 8.2
Description: The urease inhibitory activity of synthesized sulfonamides (3a-j) was determined by measuring the amount of ammonia produced by the indophenols method described byWeatherburn (27,28). The reaction mixtures, comprising 20 µL of enzyme (Jack bean urease, 5 U/mL) and 20 µL of test compounds in 50 µL buffer (100 mM urea, 0.01 MK2HPO4, 1 mM EDTA and 0.01 M […], pH 8.2), were incubated for 10 min at 37 °C in 96-well plate. Briefly, 40 µL each of phenol reagents (1%, w/v phenol and0.005%, w/v sodium nitroprusside) and 70 µL of alkali reagent (0.5%, w/v NaOH and 0.1% active chloride NaOCl) were added to each well. […] All reactions were performed in triplicate.

Urease, sequence (P07374 whole entry): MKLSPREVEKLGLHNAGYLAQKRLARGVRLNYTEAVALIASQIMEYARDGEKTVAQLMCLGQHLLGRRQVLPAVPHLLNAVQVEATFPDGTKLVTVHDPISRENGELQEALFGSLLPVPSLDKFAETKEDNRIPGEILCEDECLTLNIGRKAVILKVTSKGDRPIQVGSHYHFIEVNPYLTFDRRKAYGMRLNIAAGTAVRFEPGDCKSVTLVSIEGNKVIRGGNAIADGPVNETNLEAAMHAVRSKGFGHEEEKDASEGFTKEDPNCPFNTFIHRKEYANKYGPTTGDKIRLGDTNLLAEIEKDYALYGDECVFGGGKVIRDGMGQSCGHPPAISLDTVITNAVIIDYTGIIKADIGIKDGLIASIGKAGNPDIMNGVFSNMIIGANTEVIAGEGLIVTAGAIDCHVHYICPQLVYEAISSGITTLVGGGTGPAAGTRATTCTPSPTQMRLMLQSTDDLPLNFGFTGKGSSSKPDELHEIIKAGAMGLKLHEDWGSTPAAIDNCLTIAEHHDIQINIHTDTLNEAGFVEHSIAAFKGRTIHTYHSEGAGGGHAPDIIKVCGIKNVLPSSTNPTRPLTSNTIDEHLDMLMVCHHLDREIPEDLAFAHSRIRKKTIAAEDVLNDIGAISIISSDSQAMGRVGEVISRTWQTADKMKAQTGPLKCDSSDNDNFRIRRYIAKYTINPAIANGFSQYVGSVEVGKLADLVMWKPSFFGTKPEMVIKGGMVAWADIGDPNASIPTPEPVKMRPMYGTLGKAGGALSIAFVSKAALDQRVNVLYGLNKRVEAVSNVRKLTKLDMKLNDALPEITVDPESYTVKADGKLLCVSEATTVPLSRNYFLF

| SMILES | IC50 [nM] |
| --- | --- |
| Cc1cs/c(=N\C(=O)c2ccccc2)n1-c1ccc(S(N)(=O)=O)cc1 [(Z)-N-(3-(4-aminosulfonylphenyl)-4-methylthiazol-2(3H)-ylidene) benzamide (3a)] | 96 |
| Cc1cs/c(=N\C(=O)c2ccco2)n1-c1ccc(S(N)(=O)=O)cc1 [(Z)-N-(3-(4-aminosulfonylphenyl)-4-methylthiazol-2(3H)-ylidene) furan-2-carboxamide (3j)] | 83 |
| Cc1cs/c(=N\C(=O)c2ccc([N+](=O)[O-])cc2Cl)n1-c1ccc(S(N)(=O)=O)cc1 [(Z)-N-(3-(4-aminosulfonylphenyl)-4-methylthiazol-2(3H)-ylidene)-2-chloro-4-nitrobenzamide (3i)] | 58 |
| Cc1ccccc1C(=O)/N=c1\scc(C)n1-c1ccc(S(N)(=O)=O)cc1 [(Z)-N-(3-(4-aminosulfonylphenyl)-4-methylthiazol-2(3H)-ylidene)-2-methylbenzamide (3b)] | 87 |
| Cc1cs/c(=N\C(=O)c2ccccc2[N+](=O)[O-])n1-c1ccc(S(N)(=O)=O)cc1 [(Z)-N-(3-(4-aminosulfonylphenyl)-4-methylthiazol-2(3H)-ylidene)-2-nitrobenzamide (3f)] | 350 |
| Cc1cs/c(=N\C(=O)c2cccc(F)c2)n1-c1ccc(S(N)(=O)=O)cc1 [(Z)-N-(3-(4-aminosulfonylphenyl)-4-methylthiazol-2(3H)-ylidene)-3-fluorobenzamide (3h)] | 64 |
| COc1cccc(C(=O)/N=c2\scc(C)n2-c2ccc(S(N)(=O)=O)cc2)c1 [(Z)-N-(3-(4-aminosulfonylphenyl)-4-methylthiazol-2(3H)-ylidene)-3-methoxybenzamide (3g)] | 81 |
| Cc1cccc(C(=O)/N=c2\scc(C)n2-c2ccc(S(N)(=O)=O)cc2)c1 [(Z)-N-(3-(4-aminosulfonylphenyl)-4-methylthiazol-2(3H)-ylidene)-3-methylbenzamide (3c)] | 87 |
| Cc1ccc(C(=O)/N=c2\scc(C)n2-c2ccc(S(N)(=O)=O)cc2)cc1 [(Z)-N-(3-(4-aminosulfonylphenyl)-4-methylthiazol-2(3H)-ylidene)-4-methylbenzamide (3d)] | 72 |
| Cc1cs/c(=N\C(=O)c2ccc([N+](=O)[O-])cc2)n1-c1ccc(S(N)(=O)=O)cc1 [(Z)-N-(3-(4-aminosulfonylphenyl)-4-methylthiazol-2(3H)-ylidene)-4-nitrobenzamide (3e)] | 83 |
